Source: ChEMBL document CHEMBL3612037, “Design and synthesis of some new pyrazolyl-pyrazolines as potential anti-inflammatory, analgesic and antibacterial agents” (Eur J Med Chem, 2015)
Converted amounts (≈) assume the structure as drawn. The source made the active and inactive calls. No cut-off for these calls is given here.

Columns and labels:
[1] = system: Staphylococcus; assay: Antimicrobial activity against Staphylococcus citreus at 20 uL of 1 mg/ml by disc diffusion assay; assay type: functional; conditions: read-out: IZ
[2] = system: Mus musculus; assay: Acute toxicity in Swiss mouse assessed as induction of diarrhoea incidence at 100 to 1000 mg/kg, po measured 48 hrs post dose; assay type: organism-based; conditions: in vivo
[3] = system: Staphylococcus aureus; assay: Antimicrobial activity against Staphylococcus aureus at 20 uL of 1 mg/ml by disc diffusion assay; assay type: functional; conditions: read-out: IZ
[4] = system: Staphylococcus aureus; assay: Antimicrobial activity against Staphylococcus aureus by agar dilution method; assay type: functional
[5] = system: Escherichia coli; assay: Antimicrobial activity against Escherichia coli at 20 uL of 1 mg/ml by disc diffusion assay; assay type: functional; conditions: for zone of inhibition at 1000 µg/mL: read-out: IZ
[6] = Acute toxicity in Swiss mouse at 100 to 1000 mg/kg, po measured 48 hrs post dose; assay type: organism-based; conditions: in vivo
[7] = system: Rattus norvegicus; assay: Analgesic activity in Wistar rat assessed as tail flick latency time at 50 mg/kg, po measured 60 mins post dose by tail flick method (reference value: 3.47 +/- 0.1 secs); assay type: functional
[8] = system: Rattus norvegicus; assay: Anti-inflammatory activity in Wistar rat assessed as inhibition of carrageenan-induced paw oedema at 50 mg/kg, po dosed 30 mins before carrageenan challenge and measured 30 mins post carrageenan challenge; assay type: functional
[9] = system: Rattus norvegicus; assay: Analgesic activity in Wistar rat assessed as tail flick latency time at 50 mg/kg, po measured 0 mins post dose by tail flick method (reference value: 3.5 +/- 0.8 secs); assay type: functional
[10] = system: Aeromonas hydrophila; assay: Antimicrobial activity against Aeromonas hydrophila at 20 uL of 1 mg/ml by disc diffusion assay; assay type: functional; conditions: for zone of inhibition at 1000 µg/mL: read-out: IZ
[11] = system: Rattus norvegicus; assay: Anti-inflammatory activity in Wistar rat assessed as inhibition of carrageenan-induced paw oedema at 50 mg/kg, po dosed 30 mins before carrageenan challenge and measured 120 mins post carrageenan challenge; assay type: functional
[12] = system: Staphylococcus; assay: Antimicrobial activity against Staphylococcus citreus by agar dilution method; assay type: functional
[13] = system: Rattus norvegicus; assay: Analgesic activity in Wistar rat assessed as tail flick latency time at 50 mg/kg, po measured 90 mins post dose by tail flick method (reference value: 3.7 +/- 0.1 secs); assay type: functional
[14] = system: Rattus norvegicus; assay: Analgesic activity in Wistar rat assessed as tail flick latency time at 50 mg/kg, po measured 30 mins post dose by tail flick method (reference value: 3.46 +/- 0.1 secs); assay type: functional
[15] = system: Mus musculus; assay: Acute toxicity in Swiss mouse assessed as induction of depression incidence at 100 to 1000 mg/kg, po measured 48 hrs post dose; assay type: organism-based; conditions: in vivo
[16] = system: Rattus norvegicus; assay: Anti-inflammatory activity in Wistar rat assessed as inhibition of carrageenan-induced paw oedema at 50 mg/kg, po dosed 30 mins before carrageenan challenge and measured 60 mins post carrageenan challenge; assay type: functional
[17] = system: Escherichia coli; assay: Antimicrobial activity against Escherichia coli by agar dilution method; assay type: functional
[18] = system: Aeromonas hydrophila; assay: Antimicrobial activity against Aeromonas hydrophila by agar dilution method; assay type: functional
[19] = system: Rattus norvegicus; assay: Analgesic activity in Wistar rat assessed as tail flick latency time at 20 mg/kg, po measured 60 mins post dose by tail flick method (reference value: 3.47 +/- 0.1 secs); assay type: functional
[20] = system: Rattus norvegicus; assay: Analgesic activity in Wistar rat assessed as tail flick latency time at 20 mg/kg, po measured 30 mins post dose by tail flick method (reference value: 3.46 +/- 0.1 secs); assay type: functional
[21] = system: Rattus norvegicus; assay: Analgesic activity in Wistar rat assessed as tail flick latency time at 20 mg/kg, po measured 0 mins post dose by tail flick method (reference value: 3.5 +/- 0.8 secs); assay type: functional
[22] = system: Rattus norvegicus; assay: Analgesic activity in Wistar rat assessed as tail flick latency time at 20 mg/kg, po measured 90 mins post dose by tail flick method (reference value: 3.7 +/- 0.1 secs); assay type: functional
[23] = system: Rattus norvegicus; assay: Anti-inflammatory activity in Wistar rat assessed as inhibition of carrageenan-induced paw oedema at 20 mg/kg, po dosed 30 mins before carrageenan challenge and measured 30 mins post carrageenan challenge; assay type: functional
[24] = system: Rattus norvegicus; assay: Anti-inflammatory activity in Wistar rat assessed as inhibition of carrageenan-induced paw oedema at 20 mg/kg, po dosed 30 mins before carrageenan challenge and measured 60 mins post carrageenan challenge; assay type: functional
[25] = system: Rattus norvegicus; assay: Anti-inflammatory activity in Wistar rat assessed as inhibition of carrageenan-induced paw oedema at 20 mg/kg, po dosed 30 mins before carrageenan challenge and measured 120 mins post carrageenan challenge; assay type: functional

SMILES | zone of inhibition at 1000 µg/mL [1] [mm] | Activity [2] | zone of inhibition at 1000 µg/mL [3] [mm] | MIC [4] [µg/mL] | zone of inhibition at 1000 µg/mL [5] [mm] | LD50 at 48 h [6] [mg/kg] | Time [7] [s] | inhibition in vivo at 50 mg/kg [8] [%] | Time [9] [s] | inhibition in vivo at 50 mg/kg [11] [%] | MIC [12] [µg/mL] | Time [13] [s] | Time [14] [s] | Activity [15] | inhibition in vivo at 50 mg/kg [16] [%] | MIC [17] [µg/mL] | MIC [18] [µg/mL] | zone of inhibition at 1000 µg/mL [10] [mm] | further results
Fc1ccc(C2=NN(c3ccccc3)C(c3cn(-c4ccccc4)nc3-c3ccc(Cl)c(Cl)c3)C2)cc1 (centres undefined) | 37 | Non-toxic | 31 | 300 (≈ 569 µM) | 21 | 500 | 5.2 | 44.7 | 3.1 | 60.1 | 200 (≈ 379 µM) | 4.8 | 4.6 | Non-toxic | 55.7 | – | – | – | inhibition zone (IZ) [10]: inactive
CC1(C)S[C@@H]2[C@H](NC(=O)[C@H](N)c3ccccc3)C(=O)N2[C@H]1C(=O)O [AMPICILLIN] | – | – | – | 300 (≈ 859 µM) | – | – | – | – | – | – | 200 (≈ 572 µM) | – | – | – | – | 100 (≈ 286 µM) | 200 (≈ 572 µM) | – | –
Clc1ccc(C2=NN(c3ccccc3)C(c3cn(-c4ccccc4)nc3-c3ccc(Cl)c(Cl)c3)C2)cc1 (centres undefined) | 19 | Non-toxic | 15 | – | – | 500 | 6.1 | 45.7 | 4.3 | 61.7 | – | 4.9 | 6.1 | Non-toxic | 53.4 | – | 400 (≈ 735 µM) | 28 | inhibition zone (IZ) [5]: inactive
CO/N=C(\C(=O)N[C@@H]1C(=O)N2C(C(=O)O)=C(COC(N)=O)CS[C@H]12)c1ccco1 [CEFUROXIME] | – | – | – | – | – | – | – | – | – | – | 600 (≈ 1410 µM) | – | – | – | – | 500 (≈ 1180 µM) | 500 (≈ 1180 µM) | – | –
CN(C)[C@@H]1C(O)=C(C(N)=O)C(=O)[C@@]2(O)C(O)=C3C(=O)c4c(O)cccc4[C@@](C)(O)[C@H]3C[C@@H]12 [TETRACYCLINE] | – | – | – | 300 (≈ 675 µM) | – | – | – | – | – | – | 300 (≈ 675 µM) | – | – | – | – | 400 (≈ 900 µM) | 400 (≈ 900 µM) | – | –
CC(C)=CCN1CC[C@]2(C)c3cc(O)ccc3C[C@H]1[C@H]2C [(+)-PENTAZOCINE] | – | – | – | – | – | – | – | – | – | – | – | – | – | – | – | – | – | – | Time [19]: 7.7 s; Time [20]: 7.4 s; Time [21]: 3.6 s; Time [22]: 7.9 s
O=C(O)Cc1ccccc1Nc1c(Cl)cccc1Cl [DICLOFENAC SODIUM] | – | – | – | – | – | – | – | – | – | – | – | – | – | – | – | – | – | – | inhibition in vivo at 20 mg/kg [23]: 46.8%; inhibition in vivo at 20 mg/kg [24]: 71%; inhibition in vivo at 20 mg/kg [25]: 76.6%
Clc1ccc(C2=NNC(c3cn(-c4ccccc4)nc3-c3ccc(Cl)c(Cl)c3)C2)cc1 (centres undefined) | 18 | Non-toxic | 21 | – | 34 | 500 | 5.7 | 33 | 3.6 | 48.4 | – | 4.6 | 5.4 | Non-toxic | 45.8 | 200 (≈ 428 µM) | – | 15 | –
CCC(=O)N1N=C(c2ccc(F)cc2)CC1c1cn(-c2ccccc2)nc1-c1ccc(Cl)c(Cl)c1 (centres undefined) | 15 | Non-toxic | 23 | – | 21 | 500 | 7.7 | 51.1 | 3.4 | 75.6 | – | 7.2 | 7.9 | Non-toxic | 63.4 | – | 400 (≈ 788 µM) | 28 | –
